From US20080234262A1 (Wyeth, priority 2007, published 2008) come the findings set out here.

The term IC50 denotes the concentration that gives 50% inhibition.

Test [1] deals with prostate line LNCap. The test is described as follows: In vitro cell culture growth assay (MTS), LNCap.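 Also: viable cell density read by absorbance at 490 nm, growth expressed as percent of vehicle-treated cells on the same plate.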 The format is cell-based, human. To be noted: Homo sapiens, LNCaP, 72 h, LNCap cells, three days after drug treatment.
Test [2] addresses PI3K (Homo sapiens, UniProt P42336). The test is described as follows: Fluorescence polarization assay for PI3K.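 Also: PI3K kinase reaction on PIP2 with ATP, 30-60 min, product sensed by GST-GRP with red probe in fluorescence polarization (mP), controls without enzyme and at zero time.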 The format is biochemical. To be noted: PI3Kα; read-out: PI3Kα IC50. A general note: Polarisation of emitted light reports the rotation of a fluorescent probe.
For test [3], the system named is breast line MDA468. Kind of test: In vitro cell culture growth assay (MTS), MDA468. The format is cell-based, human. The note with it: Homo sapiens, 72 h, MDA468 cells, three days after drug treatment. Put shortly: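 Steps: plate cells; add inhibitors the next day; incubate 3 days; add MTS dye, which viable cells convert metabolically; measure absorbance at 490 nm; calculate percent of control growth relative to vehicle-treated cells in the same plate.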

Sequence of PI3K (P42336 whole entry): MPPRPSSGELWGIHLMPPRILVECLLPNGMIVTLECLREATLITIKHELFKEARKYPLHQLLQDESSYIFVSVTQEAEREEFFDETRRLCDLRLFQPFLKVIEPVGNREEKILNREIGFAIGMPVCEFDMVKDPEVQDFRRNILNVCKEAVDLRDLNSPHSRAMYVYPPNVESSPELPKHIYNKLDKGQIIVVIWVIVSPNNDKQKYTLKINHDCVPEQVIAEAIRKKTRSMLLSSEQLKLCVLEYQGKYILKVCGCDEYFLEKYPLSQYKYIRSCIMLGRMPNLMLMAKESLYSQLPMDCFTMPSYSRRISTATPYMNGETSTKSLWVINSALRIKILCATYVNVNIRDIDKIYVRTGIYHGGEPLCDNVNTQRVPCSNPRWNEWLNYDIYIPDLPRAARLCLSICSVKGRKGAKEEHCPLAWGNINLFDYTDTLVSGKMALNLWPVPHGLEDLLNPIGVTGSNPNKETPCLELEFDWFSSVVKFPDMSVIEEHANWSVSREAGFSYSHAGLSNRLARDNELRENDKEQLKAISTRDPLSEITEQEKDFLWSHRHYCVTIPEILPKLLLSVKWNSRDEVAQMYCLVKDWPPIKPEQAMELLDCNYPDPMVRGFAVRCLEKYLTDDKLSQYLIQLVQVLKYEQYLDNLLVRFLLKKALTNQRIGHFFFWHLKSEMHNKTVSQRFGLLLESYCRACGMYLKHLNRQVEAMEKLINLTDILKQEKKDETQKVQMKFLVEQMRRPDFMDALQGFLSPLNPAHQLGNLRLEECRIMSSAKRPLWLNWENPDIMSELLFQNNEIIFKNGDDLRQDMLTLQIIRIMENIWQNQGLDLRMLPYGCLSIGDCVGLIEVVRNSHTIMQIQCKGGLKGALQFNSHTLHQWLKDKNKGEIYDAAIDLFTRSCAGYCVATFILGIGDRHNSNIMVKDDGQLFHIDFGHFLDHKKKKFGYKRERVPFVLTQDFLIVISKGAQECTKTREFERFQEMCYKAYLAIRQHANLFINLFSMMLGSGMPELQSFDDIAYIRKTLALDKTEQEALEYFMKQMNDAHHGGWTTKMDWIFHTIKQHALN
Sequence of PI3K (P27986 whole entry partner): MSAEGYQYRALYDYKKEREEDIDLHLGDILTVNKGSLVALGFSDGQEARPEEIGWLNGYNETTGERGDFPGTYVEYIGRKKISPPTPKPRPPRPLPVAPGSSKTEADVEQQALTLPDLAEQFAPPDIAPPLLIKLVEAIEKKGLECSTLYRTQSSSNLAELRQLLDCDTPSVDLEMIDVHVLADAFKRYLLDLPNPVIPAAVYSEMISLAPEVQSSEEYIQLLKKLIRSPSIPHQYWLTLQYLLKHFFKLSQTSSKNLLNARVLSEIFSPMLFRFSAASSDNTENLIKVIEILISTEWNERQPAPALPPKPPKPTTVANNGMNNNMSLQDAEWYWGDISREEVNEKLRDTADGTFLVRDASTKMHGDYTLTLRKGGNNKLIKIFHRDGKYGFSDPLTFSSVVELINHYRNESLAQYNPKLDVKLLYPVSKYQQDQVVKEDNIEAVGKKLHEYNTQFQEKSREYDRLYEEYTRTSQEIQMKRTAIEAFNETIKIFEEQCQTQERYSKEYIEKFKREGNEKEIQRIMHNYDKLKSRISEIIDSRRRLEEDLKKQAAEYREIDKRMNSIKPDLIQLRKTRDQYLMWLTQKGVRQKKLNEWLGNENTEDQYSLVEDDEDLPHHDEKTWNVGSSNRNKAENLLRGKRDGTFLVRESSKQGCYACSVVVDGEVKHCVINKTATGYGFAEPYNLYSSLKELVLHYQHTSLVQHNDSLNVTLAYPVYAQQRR

Turning to `NNC(=O)Nc1ccc(-c2nc(N3CCOCC3)c3cnn(C4CCN(C(=O)c5cccnc5)CC4)c3n2)cc1` [Example 306, N-(4-{4-morpholin-4-yl-1-[1-(pyridin-3-ylcarbonyl)piperidin-4-yl]-1H-pyrazolo[3,4-d]pyrimidin-6-yl}phenyl)hydrazinecarboxamide], the results for the IC50 in test [1], in test [2] and in test [3] were 10.1 µM, 0.398 µM and 14 µM, respectively.

For the molecule `CCNC(=O)Nc1ccc(-c2nc(N3CCOCC3)c3cnn(C4CCN(C(=O)c5cccnc5)CC4)c3n2)cc1` [Example 307, 1-ethyl-3-(4-{4-morpholin-4-yl-1-[1-(pyridin-3-ylcarbonyl)piperidin-4-yl]-1H-pyrazolo[3,4-d]pyrimidin-6-yl}phenyl)urea], the IC50 was 0.06 µM in test [1], 0.434 µM in test [2] and 0.2 µM in test [3].

Regarding `CONC(=O)Nc1ccc(-c2nc(N3CCOCC3)c3cnn(C4CCN(C(=O)c5cccnc5)CC4)c3n2)cc1` [Example 308, 1-methoxy-3-(4-{4-morpholin-4-yl-1-[1-(pyridin-3-ylcarbonyl)piperidin-4-yl]-1H-pyrazolo[3,4-d]pyrimidin-6-yl}phenyl)urea], the IC50 in test [1] came out at 0.8 µM; in test [2], 1.81 µM; in test [3], 3 µM.

With `NNC(=O)Nc1ccc(-c2nc(N3CCOCC3)c3cnn(C4CCN(Cc5ccccc5)CC4)c3n2)cc1` [Example 309, N-{4-[1-(1-benzylpiperidin-4-yl)-4-morpholin-4-yl-1H-pyrazolo[3,4-d]pyrimidin-6-yl]phenyl}hydrazinecarboxamide], the 50% inhibitory concentration (IC50) in test [1] worked out at 0.9 µM; in test [2], 0.155 µM; in test [3] it was 7.5 µM.

With `NC(=O)Nc1ccc(-c2nc(N3CCOCC3)c3cnn(C4CCN(Cc5cccnc5)CC4)c3n2)cc1` [Example 313, 1-(4-{4-morpholin-4-yl-1-[1-(pyridin-3-ylmethyl)piperidin-4-yl]-1H-pyrazolo[3,4-d]pyrimidin-6-yl}phenyl)urea], the IC50 was found to be 0.2 µM in test [1], 0.082 µM in test [2] and 0.2 µM in test [3].

As for `O=C(NCCO)Nc1ccc(-c2nc(N3CCOCC3)c3cnn(C4CCN(Cc5cccnc5)CC4)c3n2)cc1` [Example 316, 1-(2-hydroxyethyl)-3-(4-{4-morpholin-4-yl-1-[1-(pyridin-3-ylmethyl)piperidin-4-yl]-1H-pyrazolo[3,4-d]pyrimidin-6-yl}phenyl)urea], the IC50 in test [1] worked out at 0.5 µM; in test [2], 0.163 µM; in test [3] it was 0.6 µM.

Regarding `CNC(=O)Nc1ccc(-c2nc(N3CCOCC3)c3cnn(C4CCC5(CC4)OCCO5)c3n2)cc1` [Example 321, 1-{4-[1-(1,4-dioxaspiro[4.5]dec-8-yl)-4-morpholin-4-yl-1H-pyrazolo[3,4-d]pyrimidin-6-yl]phenyl}-3-methylurea], the values for the IC50 in test [1], in test [2] and in test [3] were 0.027 µM, 0.074 µM and 0.1 µM, respectively.

For `CNC(=O)Nc1ccc(-c2nc(N3CCOCC3)c3cnn(C4CCC(=O)CC4)c3n2)cc1` [Example 322, 1-methyl-3-{4-[4-morpholin-4-yl-1-(4-oxocyclohexyl)-1H-pyrazolo[3,4-d]pyrimidin-6-yl]phenyl}urea], the IC50 in test [1] stood at 0.027 µM; in test [2], 0.056 µM; in test [3] it was 0.2 µM.

For the molecule `CNC(=O)Nc1ccc(-c2nc(N3CCOCC3)c3cnn(C4CCC(O)CC4)c3n2)cc1` (stereo not drawn) [Example 323, 1-{4-[1-(4-hydroxycyclohexyl)-4-morpholin-4-yl-1H-pyrazolo[3,4-d]pyrimidin-6-yl]phenyl}-3-methylurea], the IC50 is 0.054 µM in test [1], 0.039 µM in test [2] and 0.2 µM in test [3].

Regarding `CNC(=O)Nc1ccc(-c2nc(N3CCOCC3)c3cnn(C4CCN(C(=O)c5cccnc5C)CC4)c3n2)cc1` [Example 329, 1-methyl-3-[4-(1-{1-[(2-methylpyridin-3-yl)carbonyl]piperidin-4-yl}-4-morpholin-4-yl-1H-pyrazolo[3,4-d]pyrimidin-6-yl)phenyl]urea], the figures for the IC50 in test [1], in test [2] and in test [3] were 0.25 µM, 0.216 µM and 0.9 µM, respectively.

As to `CNC(=O)Nc1ccc(-c2nc(N3CCOCC3)c3cnn(C4CCN(Cc5ccc(OC)nc5)CC4)c3n2)cc1` [Example 330, 1-[4-(1-{1-[(6-methoxypyridin-3-yl)methyl]piperidin-4-yl}-4-morpholin-4-yl-1H-pyrazolo[3,4-d]pyrimidin-6-yl)phenyl]-3-methylurea], the figures for the IC50 in test [1], in test [2] and in test [3] were 0.027 µM, 0.033 µM and 0.7 µM, respectively.

Take `CNC(=O)Nc1ccc(-c2nc(N3CCOCC3)c3cnn(C4CCN(Cc5ccccn5)CC4)c3n2)cc1` [Example 331, 1-methyl-3-(4-{4-morpholin-4-yl-1-[1-(pyridin-2-ylmethyl)piperidin-4-yl]-1H-pyrazolo[3,4-d]pyrimidin-6-yl}phenyl)urea]: the IC50 amounted to 0.027 µM in test [1], 0.065 µM in test [2] and 0.5 µM in test [3].

Turning to `CNC(=O)Nc1ccc(-c2nc(N3CCOCC3)c3cnn(C4CCN(CC(N)=O)CC4)c3n2)cc1` [Example 332, 2-[4-(6-{4-[(methylcarbamoyl)amino]phenyl}-4-morpholin-4-yl-1H-pyrazolo[3,4-d]pyrimidin-1-yl)piperidin-1-yl]acetamide], the IC50 in test [1] stood at 0.6 µM; in test [2], 0.066 µM; in test [3] it was 1 µM.

`CNC(=O)Nc1ccc(-c2nc(N3CCOCC3)c3cnn(C4CCN(CC(=O)c5ccccc5)CC4)c3n2)cc1` [Example 333, 1-methyl-3-(4-{4-morpholin-4-yl-1-[1-(2-oxo-2-phenylethyl)piperidin-4-yl]-1H-pyrazolo[3,4-d]pyrimidin-6-yl}phenyl)urea]: the IC50 in test [1] was 0.027 µM; in test [2], 0.023 µM; in test [3], 0.2 µM.

For the molecule `CNC(=O)Nc1ccc(-c2nc(N3CCOCC3)c3cnn(C4CCN(C(=O)N5CCN(C)CC5)CC4)c3n2)cc1` [Example 334, 1-methyl-3-[4-(1-{1-[(4-methylpiperazin-1-yl)carbonyl]piperidin-4-yl}-4-morpholin-4-yl-1H-pyrazolo[3,4-d]pyrimidin-6-yl)phenyl]urea], the results for the IC50 in test [1], in test [2] and in test [3] were 0.4 µM, 0.071 µM and 0.7 µM, respectively.

With `CNC(=O)Nc1ccc(-c2nc(N3CCOCC3)c3cnn(C4CCN(C(=O)Nc5cccnc5)CC4)c3n2)cc1` [Example 335, 4-(6-{4-[(methylcarbamoyl)amino]phenyl}-4-morpholin-4-yl-1H-pyrazolo[3,4-d]pyrimidin-1-yl)-N-pyridin-3-ylpiperidine-1-carboxamide], the IC50 in test [1] is 3 µM; in test [2] it was 0.03 µM; in test [3], 2.5 µM.

Turning to `CNC(=O)Nc1ccc(-c2nc(N3CCOCC3)c3cnn(C4CCNCC4)c3n2)cc1` [Example 338, 1-methyl-3-[4-(4-morpholin-4-yl-1-piperidin-4-yl-1H-pyrazolo[3,4-d]pyrimidin-6-yl)phenyl]urea], the values for the IC50 in test [1], in test [2] and in test [3] were 0.5 µM, 0.023 µM and 1.3 µM, respectively.

With `O=C(Nc1ccccc1)Nc1ccc(-c2nc(N3CCOCC3)c3cnn(C4CCN(Cc5cccnc5)CC4)c3n2)cc1` [Example 339, 1-(4-{4-morpholin-4-yl-1-[1-(pyridin-3-ylmethyl)piperidin-4-yl]-1H-pyrazolo[3,4-d]pyrimidin-6-yl}phenyl)-3-phenylurea], the values for the IC50 in test [1], in test [2] and in test [3] were 0.031 µM, 0.011 µM and 0.2 µM, respectively.

`O=C(Nc1ccncc1)Nc1ccc(-c2nc(N3CCOCC3)c3cnn(C4CCN(Cc5cccnc5)CC4)c3n2)cc1` [Example 340, 1-(4-{4-morpholin-4-yl-1-[1-(pyridin-3-ylmethyl)piperidin-4-yl]-1H-pyrazolo[3,4-d]pyrimidin-6-yl}phenyl)-3-pyridin-4-ylurea]: the figures for the IC50 in test [1], in test [2] and in test [3] were 0.028 µM, 0.013 µM and 0.1 µM, respectively.

With `O=C(Nc1ccc(-c2nc(N3CCOCC3)c3cnn(C4CCN(Cc5cccnc5)CC4)c3n2)cc1)Nc1ccccn1` [Example 341, 1-(4-{4-morpholin-4-yl-1-[1-(pyridin-3-ylmethyl)piperidin-4-yl]-1H-pyrazolo[3,4-d]pyrimidin-6-yl}phenyl)-3-pyridin-2-ylurea], the IC50 was found to be 0.33 µM in test [1], 0.091 µM in test [2] and 1.8 µM in test [3].

For the molecule `CNCCNC(=O)Nc1ccc(-c2nc(N3CCOCC3)c3cnn(C4CCN(Cc5cccnc5)CC4)c3n2)cc1` [Example 342, 1-[2-(methylamino)ethyl]-3-(4-{4-morpholin-4-yl-1-[1-(pyridin-3-ylmethyl)piperidin-4-yl]-1H-pyrazolo[3,4-d]pyrimidin-6-yl}phenyl)urea], the IC50 in test [1] was determined as 1.2 µM; in test [2] it was 0.029 µM; in test [3], 1.1 µM.

`O=C(Nc1ccc(-c2nc(N3CCOCC3)c3cnn(C4CCN(C(=O)c5cccnc5)CC4)c3n2)cc1)Nc1ccccn1` [Example 345, 1-(4-{4-morpholin-4-yl-1-[1-(pyridin-3-ylcarbonyl)piperidin-4-yl]-1H-pyrazolo[3,4-d]pyrimidin-6-yl}phenyl)-3-pyridin-2-ylurea]: the IC50 in test [1] was 0.095 µM; in test [2], 0.261 µM; in test [3] it was 0.7 µM.

As for `CNCCNC(=O)Nc1ccc(-c2nc(N3CCOCC3)c3cnn(C4CCN(C(=O)c5cccnc5)CC4)c3n2)cc1` [Example 346, 1-[2-(methylamino)ethyl]-3-(4-{4-morpholin-4-yl-1-[1-(pyridin-3-ylcarbonyl)piperidin-4-yl]-1H-pyrazolo[3,4-d]pyrimidin-6-yl}phenyl)urea], the values for the IC50 in test [1], in test [2] and in test [3] were 5 µM, 0.045 µM and 9 µM, respectively.
